The conditions of data set [1]: in vivo; cited from earlier work.
The next data set concerns iNOS. Put plainly: iNOS expression in human islets. The format is cell-based. The following applies: 33 mM glucose or IL-1β alone, 44 hours. As to the method:
Western blot analysis. Islets were cultured in a culture medium in non-adherent plastic dishes. One day after isolation, the medium was changed and groups of 200 islets were incubated for 44 hours in culture medium containing 5.5 or 33.3 mM glucose without or with 2 ng/ml IL-1β or 500 ng/ml IL-1Ra. At the end of the incubations, islets were washed in PBS, suspended in 50 μl sample buffer containing 125 mM Tris-HCl, pH 6.8, 4% SDS, 10% glycerol, 0.3% bromphenol blue, 1.8% β-mercaptoethanol and boiled for 5 min. Equivalent amounts of each treatment group were run on 15% SDS polyacrylamide gels. […] Intensity of bands was analyzed using Multianalyst™ (Bio Rad, Laboratories inc., Hercules, Calif.).
RNA extraction, RT-PCR and sequencing of RT-PCR product. […] The conditions of the PCR amplification for IL-1β and Fas were: denaturation 30 seconds at 94° C., annealing 30 seconds at 60° C. and elongation 30 seconds at 72° C., followed for real time PCR by quantification 5 seconds at 80° C., 45 cycles. […] For quantitative analysis, we used the Light Cycler quantitative PCR system (Roche, Basel, Switzerland) and performed quantitative PCR with a commercial kit (Light Cycler-DNA Master SYBR Green I; Roche). […]

The subject of the next data set is human islets. Put plainly: Insulin release and content of human islets. The following applies: 33.3 mM glucose or IL-1β, 4 days. The class given is cell-based. Here is the method: (§1) Islet isolation and culture. Islets were isolated from pancreases of eleven organ donors at the Department of Surgery, University of Geneva Medical Center, as described (32-34). The islet purity was >95%, as judged by dithizone staining (if this degree of purity was not primarily achieved by routine isolation, islets were handpicked). […] For long-term in vitro studies, the islets were cultured on extracellular matrix-coated plates derived from bovine corneal endothelial cells (Novamed Ltd., Jerusalem, Israel), allowing the cells to attach to the dishes and spread, preserving their functional integrity (7;35). Islets were cultured in CMRL 1066 medium containing 100 U/ml penicillin, 100 μg/ml streptomycin and 10% fetal calf serum (Gibco, Gaithersburg, Md.), hereinafter referred to as culture medium. Two days after plating, when most islets were attached and began to flatten, the medium was changed to culture medium containing 5.5, 11.1 or 33.3 mM glucose. In some experiments, islets were additionally cultured with 2 ng/ml recombinant human IL-1β, 1000 U/ml recombinant human IFNγ (ReproTech EC Ltd, London, UK), 500 ng/ml IL-1β receptor antagonist (IL-1Ra) (R&D Systems Inc., Minneapolis, Minn.), 1 ng/ml membrane bound Fas-ligand (FasL) (36) (upstate biotechnology, Lake Placid, N.Y.) or with 100 μM pyrrolidinedithiocarbamate (PDTC; Sigma; 2 h per 2 d of culture).
Insulin release and content. To determine acute insulin release in response to glucose stimulation, islets were washed in RPMI 1640 medium with 10% FCS and containing 3.3 mM glucose and pre-incubated for 1 h in the same medium. The medium was then discarded and replaced with fresh medium containing 3.3 mM glucose for 1 h for basal secretion, followed by an additional 1 h incubation in medium containing 16.7 mM glucose. Incubates were collected and frozen for insulin assays. […] Insulin was determined by a human insulin RIA kit (CIS bio international, Gif-Sur-Yvette, France).

A further data set addresses T1, type II IL-1R (Homo sapiens, UniProt P27930).
T1 sequence (P27930 14-398): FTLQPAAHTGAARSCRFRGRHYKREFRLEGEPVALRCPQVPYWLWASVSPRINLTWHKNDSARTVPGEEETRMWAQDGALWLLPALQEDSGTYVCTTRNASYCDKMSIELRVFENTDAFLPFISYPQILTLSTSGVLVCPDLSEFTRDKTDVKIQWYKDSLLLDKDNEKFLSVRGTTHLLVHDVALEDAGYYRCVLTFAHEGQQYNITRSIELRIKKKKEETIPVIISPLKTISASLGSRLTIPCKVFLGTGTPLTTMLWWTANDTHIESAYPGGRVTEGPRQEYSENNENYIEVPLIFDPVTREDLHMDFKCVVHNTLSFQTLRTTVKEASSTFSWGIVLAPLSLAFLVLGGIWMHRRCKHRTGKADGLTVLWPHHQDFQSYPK
Conditions: read-out: Kd, binding to type II IL-1R; cited from earlier work.

In data set [2] the test system is diabetes-prone Psammomys obesus. Put plainly: Diabetes-prone Psammomys obesus on high-energy diet treated with phlorizin. The format is in vivo. An excerpt:
Animals. Psammomys obesus of both sexes (age 2.0-3.5 months) from the diabetes-prone and diabetes-resistant lines of the Hebrew University colonies were obtained from Harlan (Jerusalem, Israel). After weaning, diabetes-prone Psammomys obesus were maintained on a low-energy diet containing 2.38 kcal/g (Koffolk, Petach Tikva, Israel) until the start of the experiments, whereas diabetes-resistant Psammomys obesus were maintained on a […] (Weizmann Institute, Rehovot, Israel) to identify animals that develop diabetes and exclude them from the study (˜30-40% of the animals in the diabetes-resistant colony). All non-fasted animals with random blood glucose concentrations <7.8 mmol/l (Glucometer Elite, Bayer Diagnostics, Elkart, Ind.) were considered nondiabetic. Diabetes-prone Psammomys obesus switched to a high-energy diet, received an injection of 0.4 g/kg phlorizin (Sigma) or solvent (40% propylene glycol) every 12 h and were killed after 8 days. Psammomys obesus were anesthetized with ketamine (Ketalar, Park-Davis, Gwent, U.K.) and exsanguinated by cardiac puncture. The pancreas was rapidly removed, and immersion-fixed in 10% phosphate-buffered formalin. The animal studies were approved by the Institutional Animal Care and Use Committee of the Hebrew University and the Hadassah Medical Organization.
Detection of IL-1β expressing β-cells. Pancreases from routine necropsies and pancreases from Psammomys obesus were immersion-fixed in formalin, followed by paraffin embedding. Sections were deparaffinized and rehydrated, and endogenous peroxidase blocked by submersion in 0.3% H2O2 for 15 min. Sections were then incubated in methanol for 4 min. After washing with PBS, cultured islets and isolated β-cells were fixed in 4% paraformaldehyde (30 min, room temperature) followed by permeabilisation with 0.5% triton X-100 (4 min, room temperature). Both tissue sections and cultured cells were double-labeled for IL-1β and insulin by 1 h exposure to 10% bovine serum albumin, followed by incubation (1 h, 37° C.) with mouse anti-IL-1β antibody (1:30 dilution, R&D Systems Inc.). Detection was performed using donkey anti-mouse Cy3 conjugated antibody (1:100 dilution, Jackson). Subsequently, specimens were incubated for 30 min at 37° C. with guinea pig anti-insulin antibody diluted 1:50 (Dako, Carpinteria, Calif.), followed by a 30 min incubation with a 1:20 dilution of fluorescein-conjugated rabbit anti-guinea pig antibody (Dako). For positive control of IL-1β staining, human mononuclear cells were isolated as described previously (37) and exposed for 2 h, 37° C. to 1 μg/ml lipopolysaccharide (Difco, Detroit, Ind.). […]

A further data set deals with human islets β-cells. Put plainly: β-cell apoptosis (TUNEL) and necrosis (propidium iodide) in human islets. The following applies: 33 mM glucose + exogenous FasL. The class given is cell-based. Here is the method:
as §1
β-cell apoptosis. The free 3-OH strand breaks resulting from DNA degradation were detected by the terminal deoxynucleotidyl transferase-mediated dUTP nick-end labeling (TUNEL) technique (38). After washing with PBS, cultured islets were fixed in 4% paraformaldehyde (30 min, room temperature) followed by permeabilisation with 0.5% triton X-100 (4 min, room temperature). The TUNEL assay was performed according to the manufacturer's instructions (In Situ Cell Death Detection Kit, AP; Boehringer Mannheim, Germany). […] The samples were immediately evaluated by fluorescence microscopy for positively stained […] nuclei.

The mark [3] stands for this setting: high-energy diet 8 days, 0.4 g/kg phlorizin every 12 h.

On to anakinra, for which the half-life (in general, how long it takes for the measured level to halve) in data set [1] was 4 to 6 h.
Consider Interleukin-1β [IL-1β], for which, in the data set on iNOS, the “iNOS mRNA or protein expression” value is “Neither 33 mM glucose nor IL-1β alone induced iNOS mRNA”. For the same molecule, the “acute glucose-stimulated insulin release after chronic exposure” value in the data set on human islets is on record as “abolished acute glucose-stimulated insulin release”. Besides, in the data set with type II IL-1R, the Kd (in general, a measure of binding affinity in units of concentration) is 0.3 to 2 nM.
With `O=C(CCc1ccc(O)cc1)c1c(O)cc(O)cc1O[C@@H]1O[C@H](CO)[C@@H](O)[C@H](O)[C@H]1O` [phlorizin], in data set [2] (setting [3]), the “IL-1β expression in β-cells” value is “prevented IL-1β expression”, the “blood glucose (in words)” value is given as “Normalization of blood glucose” and the “insulin stores of islets” value is reported as “restored insulin stores”. Further, in data set [2] (high-energy diet for 8 days with injections of phlorizin), the blood glucose was 5.6 mM.

B1: FasL: membrane bound Fas-ligand (protein, UniProt P48023 1-281, looked up)
chain: MQQPFNYPYPQIYWVDSSASSPWAPPGTVLPCPTSVPRRPGQRRPPPPPPPPPLPPPPPPPPLPPLPLPPLKKRGNHSTGLCLLVMFFMVLVALVGLGLGMFQLFHLQKELAELRESTSQMHTASSLEKQIGHPSPPPEKKELRKVAHLTGKSNSRSMPLEWEDTYGIVLLSGVKYKKGGLVINETGLYFVYSKVYFRGQSCNNLPLSHKVYMRNSKYPQDLVMMEGKMMSYCTTGQMWARSSYLGAVFNLTSADHLYVNVSELSLVNFEESQTFFGLYKL
modifications: full-length
Take B1: the “increase of TUNEL-positive β-cells compared to control at 5.5 mM glucose” value in the data set with human islets β-cells is given as 3.0+/−0.4 fold.
